Measured values: patent US11420958B2, “Aryl and heteroaryl substituted indole compounds” (BRISTOL-MYERS SQUIBB COMPANY, priority 2017, dated 2022)
pIC50: −log10 of the molar value.

How the values were obtained:
Type in all cases: cell-based
human TLR8 = human TLR8 (Homo sapiens (Human), UniProt Q9NR97); experiment: TLR8 inhibition reporter assay (HEK-Blue, SEAP); conditions: HEK-Blue cells overexpressing human TLR8, R848 15.9 μM stimulation
In short: (§1)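 Percent inhibition of agonist-induced SEAP secretion was scored against DMSO-only and reference-inhibitor controls. Stimulation lasted 22 h at 37 °C following 30 min compound pre-exposure (0.05 nM–50 μM); ligands were gardiquimod 7.5 μM, R848 15.9 μM and ODN2006 5 nM for TLR7, 8 and 9.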

human TLR7 = human TLR7 (Homo sapiens (Human), UniProt Q9NYK1); experiment: TLR7 inhibition reporter assay (HEK-Blue, SEAP); conditions: HEK-Blue cells overexpressing human TLR7, gardiquimod 7.5 μM stimulation
In short: as §1

human TLR9 = human TLR9 (Homo sapiens (Human), UniProt Q9NR96); experiment: TLR9 inhibition reporter assay (HEK-Blue, SEAP); conditions: HEK-Blue cells overexpressing human TLR9, ODN2006 5 nM stimulation
In short: as §1

human TLR8, sequence (Q9NR97 27-1041): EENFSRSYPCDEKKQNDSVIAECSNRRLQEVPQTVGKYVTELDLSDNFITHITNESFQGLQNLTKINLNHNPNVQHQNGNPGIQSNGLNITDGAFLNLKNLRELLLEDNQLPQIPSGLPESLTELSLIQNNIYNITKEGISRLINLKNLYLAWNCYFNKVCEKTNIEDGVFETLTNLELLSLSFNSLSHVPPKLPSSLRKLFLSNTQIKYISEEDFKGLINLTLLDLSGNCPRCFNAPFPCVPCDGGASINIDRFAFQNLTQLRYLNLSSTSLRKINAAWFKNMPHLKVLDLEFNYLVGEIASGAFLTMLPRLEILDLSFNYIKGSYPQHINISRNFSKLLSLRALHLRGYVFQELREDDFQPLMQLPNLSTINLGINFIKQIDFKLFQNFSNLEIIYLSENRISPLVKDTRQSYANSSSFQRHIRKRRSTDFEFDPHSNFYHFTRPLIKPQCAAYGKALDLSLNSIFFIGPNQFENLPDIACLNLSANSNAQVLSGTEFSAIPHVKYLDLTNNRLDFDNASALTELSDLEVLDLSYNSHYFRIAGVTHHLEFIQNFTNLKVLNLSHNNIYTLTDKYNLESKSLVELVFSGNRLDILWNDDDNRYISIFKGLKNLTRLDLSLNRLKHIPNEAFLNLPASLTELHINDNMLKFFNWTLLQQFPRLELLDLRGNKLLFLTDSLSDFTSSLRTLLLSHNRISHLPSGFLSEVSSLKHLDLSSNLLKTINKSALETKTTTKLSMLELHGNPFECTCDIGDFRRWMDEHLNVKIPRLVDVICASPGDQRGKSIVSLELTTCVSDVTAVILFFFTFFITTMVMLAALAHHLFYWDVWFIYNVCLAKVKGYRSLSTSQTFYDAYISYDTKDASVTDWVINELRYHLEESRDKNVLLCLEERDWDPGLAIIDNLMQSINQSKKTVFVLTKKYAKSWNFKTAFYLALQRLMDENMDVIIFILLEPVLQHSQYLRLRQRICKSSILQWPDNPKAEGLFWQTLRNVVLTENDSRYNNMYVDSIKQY
human TLR7, sequence (Q9NYK1 27-1049): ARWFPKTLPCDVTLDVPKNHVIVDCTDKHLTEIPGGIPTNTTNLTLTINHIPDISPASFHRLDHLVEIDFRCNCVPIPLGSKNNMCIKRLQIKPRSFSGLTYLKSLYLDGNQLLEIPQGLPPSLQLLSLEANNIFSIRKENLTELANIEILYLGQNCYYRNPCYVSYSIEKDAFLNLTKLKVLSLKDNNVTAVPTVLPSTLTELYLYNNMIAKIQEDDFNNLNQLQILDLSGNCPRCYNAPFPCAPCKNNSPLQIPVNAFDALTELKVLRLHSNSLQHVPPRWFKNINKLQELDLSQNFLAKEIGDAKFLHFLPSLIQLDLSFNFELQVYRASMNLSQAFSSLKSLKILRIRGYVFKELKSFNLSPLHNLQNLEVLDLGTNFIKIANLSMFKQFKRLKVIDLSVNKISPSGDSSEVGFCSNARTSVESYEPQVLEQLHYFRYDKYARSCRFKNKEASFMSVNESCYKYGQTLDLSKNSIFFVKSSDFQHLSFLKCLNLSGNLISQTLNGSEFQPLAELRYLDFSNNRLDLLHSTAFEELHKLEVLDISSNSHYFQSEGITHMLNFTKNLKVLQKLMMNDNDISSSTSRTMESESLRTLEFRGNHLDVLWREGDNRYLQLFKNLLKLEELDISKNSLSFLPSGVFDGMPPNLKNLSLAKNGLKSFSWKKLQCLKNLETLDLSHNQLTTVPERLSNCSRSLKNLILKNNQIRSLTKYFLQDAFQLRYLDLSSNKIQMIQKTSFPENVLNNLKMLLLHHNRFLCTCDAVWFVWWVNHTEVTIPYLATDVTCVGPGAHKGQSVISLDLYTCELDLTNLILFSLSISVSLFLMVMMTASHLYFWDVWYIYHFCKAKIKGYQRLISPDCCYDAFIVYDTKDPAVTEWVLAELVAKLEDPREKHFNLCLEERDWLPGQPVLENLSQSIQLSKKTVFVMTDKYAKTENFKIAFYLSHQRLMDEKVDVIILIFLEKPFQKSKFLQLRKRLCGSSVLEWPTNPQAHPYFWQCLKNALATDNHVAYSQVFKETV
human TLR9, sequence (Q9NR96 26-1032): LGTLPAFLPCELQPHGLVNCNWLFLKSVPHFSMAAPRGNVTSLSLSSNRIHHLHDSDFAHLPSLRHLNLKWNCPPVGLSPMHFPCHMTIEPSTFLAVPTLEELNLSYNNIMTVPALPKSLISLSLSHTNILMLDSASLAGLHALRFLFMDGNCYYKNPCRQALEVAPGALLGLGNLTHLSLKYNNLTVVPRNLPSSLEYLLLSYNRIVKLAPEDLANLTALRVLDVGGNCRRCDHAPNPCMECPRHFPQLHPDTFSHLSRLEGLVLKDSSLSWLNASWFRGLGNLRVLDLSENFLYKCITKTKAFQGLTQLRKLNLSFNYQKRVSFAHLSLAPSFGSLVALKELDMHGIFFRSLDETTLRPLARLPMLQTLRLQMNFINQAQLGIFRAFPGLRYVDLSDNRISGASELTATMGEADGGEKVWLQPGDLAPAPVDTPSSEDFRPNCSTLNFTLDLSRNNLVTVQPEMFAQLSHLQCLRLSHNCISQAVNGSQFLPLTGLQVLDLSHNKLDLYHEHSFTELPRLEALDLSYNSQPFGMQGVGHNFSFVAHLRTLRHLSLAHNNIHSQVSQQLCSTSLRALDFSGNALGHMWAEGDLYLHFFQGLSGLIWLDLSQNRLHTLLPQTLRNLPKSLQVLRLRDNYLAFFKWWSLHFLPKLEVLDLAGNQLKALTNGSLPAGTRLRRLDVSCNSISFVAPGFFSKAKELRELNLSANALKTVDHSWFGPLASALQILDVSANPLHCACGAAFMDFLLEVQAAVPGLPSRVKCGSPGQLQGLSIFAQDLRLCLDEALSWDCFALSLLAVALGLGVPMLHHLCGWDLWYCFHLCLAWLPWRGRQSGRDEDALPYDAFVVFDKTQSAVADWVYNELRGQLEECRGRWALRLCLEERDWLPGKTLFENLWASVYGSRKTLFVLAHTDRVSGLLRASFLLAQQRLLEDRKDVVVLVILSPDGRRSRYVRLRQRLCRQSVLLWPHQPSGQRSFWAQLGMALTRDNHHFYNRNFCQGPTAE

Row | pIC50 (human TLR8) | pIC50 (human TLR7) | pIC50 (human TLR9) | Compound
1 | 8.19 | 7.08 | 5.26 | Cc1cc(-c2[nH]c3ccc(-c4ccc(NC(C)C)nc4)cc3c2C(C)C)ccn1 [Example 247, N-isopropyl-5-(3-isopropyl-2-(2-methylpyridin-4-yl)-1H-indol-5-yl)pyridin-2-amine]
2 | 7.77 | 7.43 | 6.13 | Cc1cc(-c2[nH]c3ccc(-c4ccc(C(=O)N5CCC(NC(C)C)CC5)cc4)cc3c2C(C)C)ccn1 [Example 321, (4-(3-isopropyl-2-(2-methylpyridin-4-yl)-1H-indol-5-yl)phenyl)(4-(isopropylamino)piperidin-1-yl)methanone]
3 | 7.03 | 5.41 | 5.32 | COc1ccc(-c2[nH]c3ccc(-c4cccc(N5CCN(C(C)C)CC5)c4)cc3c2C(C)C)cc1OC [Example 370, 2-(3,4-dimethoxyphenyl)-3-isopropyl-5-(3-(4-isopropylpiperazin-1-yl)phenyl)-1H-indole]
4 | 9.00 | 7.80 | 6.21 | Cc1cc(-c2[nH]c3ccc(-c4cc5c(s4)CNCC5)cc3c2C(C)C)ccn1 [Example 225, 2-(3-isopropyl-2-(2-methylpyridin-4-yl)-1H-indol-5-yl)-4,5,6,7-tetrahydrothieno[2,3-c]pyridine]
5 | 7.11 | 7.15 | 5.13 | Cc1cc(-c2[nH]c3ccc(-c4nnc(C5CCCNC5)[nH]4)cc3c2C(C)C)ccn1 (stereo not drawn) [Example 184, 3-isopropyl-2-(2-methylpyridin-4-yl)-5-(5-(piperidin-3-yl)-4H-1,2,4-triazol-3-yl)-1H-indole]
6 | 8.26 | 7.49 | 6.61 | Cc1cc(-c2[nH]c3ccc(-c4nnc(C5CCCN(C(C)C)C5)[nH]4)cc3c2C(C)C)ccn1 (stereo not drawn) [Example 205, 3-isopropyl-5-(5-(1-isopropylpiperidin-3-yl)-4H-1,2,4-triazol-3-yl)-2-(2-methylpyridin-4-yl)-1H-indole]
7 | 9.05 | 7.30 | 6.19 | Cc1cc(-c2[nH]c3ccc(-c4cc5c(s4)CN(C(C)C)CC5)cc3c2C(C)C)ccn1 [Example 228, 6-isopropyl-2-(3-isopropyl-2-(2-methylpyridin-4-yl)-1H-indol-5-yl)-4,5,6,7-tetrahydrothieno[2,3-c]pyridine]
8 | 8.66 | 7.51 | 6.13 | Cc1cc(-c2[nH]c3ccc(-c4nnc(C5CCN(C(=O)CN(C)C)CC5)o4)cc3c2C(C)C)ccn1 [Example 62, 2-(dimethylamino)-1-(4-(5-(3-isopropyl-2-(2-methylpyridin-4-yl)-1H-indol-5-yl)-1,3,4-oxadiazol-2-yl)piperidin-1-yl)ethan-1-one]
9 | 8.28 | 7.17 | 6.33 | Cc1cc(-c2[nH]c3ccc(-c4nnc(CN5CCNCC5)o4)cc3c2C(C)C)ccn1 [Example 140, 2-(3-isopropyl-2-(2-methylpyridin-4-yl)-1H-indol-5-yl)-5-(piperazin-1-ylmethyl)-1,3,4-oxadiazole]

Further lines, the compound ahead of its results:

Row | Compound | pIC50 (human TLR8) | pIC50 (human TLR7) | pIC50 (human TLR9)
10 | CCc1c(-c2ccc(OC)c(OC)c2)[nH]c2ccc(-c3noc(C4CCNCC4)n3)cc12 [Example 459, 3-(2-(3,4-dimethoxyphenyl)-3-ethyl-1H-indol-5-yl)-5-(piperidin-4-yl)-1,2,4-oxadiazole] | 7.72 | 6.51 | 5.66
11 | CC(C)c1c(-c2ccnc3[nH]ncc23)[nH]c2ccc(-c3c[nH]nc3C(F)(F)F)cc12 [Example 438, 4-(3-isopropyl-5-(3-(trifluoromethyl)-1H-pyrazol-4-yl)-1H-indol-2-yl)-1H-pyrazolo[3,4-b]pyridine] | 8.00 | 6.02 | 4.42
12 | COc1ccc(-c2[nH]c3ccc(-c4cnc(N5CCN(C6CCCC6)CC5)nc4)cc3c2C(C)C)cc1OC [Example 435, 5-(2-(4-cyclopentylpiperazin-1-yl)pyrimidin-5-yl)-2-(3,4-dimethoxyphenyl)-3-isopropyl-1H-indole] | 6.62 | 5.81 | 5.44
13 | CC(C)c1c(-c2ccc3ncnn3c2)[nH]c2ccc(-c3nnc([C@@H]4CCCNC4)o3)cc12 [Example 227, (R)-2-(2-([1,2,4]triazolo[1,5-a]pyridin-6-yl)-3-isopropyl-1H-indol-5-yl)-5-(piperidin-3-yl)-1,3,4-oxadiazole] | 8.03 | 7.21 | 6.05
14 | CC(C)c1c(-c2ccnc3[nH]ncc23)[nH]c2ccc(-c3nnc(C4CCCN(C)C4)o3)cc12 (stereo not drawn) [Example 167, 2-(3-isopropyl-2-(1H-pyrazolo[3,4-b]pyridin-4-yl)-1H-indol-5-yl)-5-(1-methylpiperidin-3-yl)-1,3,4-oxadiazole] | 8.49 | 7.18 | 6.19
15 | CC(C)c1c(-c2ccnc3[nH]ncc23)[nH]c2ccc(-c3nnc(C4CCNCC4)o3)cc12 [Example 102, 2-(3-isopropyl-2-(1H-pyrazolo[3,4-b]pyridin-4-yl)-1H-indol-5-yl)-5-(piperidin-4-yl)-1,3,4-oxadiazole] | 7.96 | 6.90 | 6.21
16 | COc1ccc(-c2[nH]c3ccc(-c4ccc(CCCN5CCOCC5)cc4)cc3c2C(C)C)cc1OC [Example 398, 4-(3-(4-(2-(3,4-dimethoxyphenyl)-3-isopropyl-1H-indol-5-yl)phenyl)propyl)morpholine] | 5.67 | 6.25 | 5.59
17 | COc1ccc(-c2[nH]c3ccc(-c4cccc(C(=O)NCC(N)=O)c4)cc3c2CC(F)(F)F)cc1OC [Example 28, N-(2-amino-2-oxoethyl)-3-(2-(3,4-dimethoxyphenyl)-3-(2,2,2-trifluoroethyl)-1H-indol-5-yl)benzamide] | 7.03 | 6.23 | 4.49
18 | COc1ccc(-c2[nH]c3ccc(-c4nnc(C(=O)N5CCC(N6CCCC6)CC5)o4)cc3c2C(C)C)cc1OC [Example 95, (5-(2-(3,4-dimethoxyphenyl)-3-isopropyl-1H-indol-5-yl)-1,3,4-oxadiazol-2-yl)(4-(pyrrolidin-1-yl)piperidin-1-yl)methanone] | 7.68 | 7.00 | 5.85
19 | COc1ccc(-c2[nH]c3ccc(-c4nnc(C5CCN(C)CC5)o4)cc3c2C(C)C)cc1OC [Example 20, 2-(2-(3,4-dimethoxyphenyl)-3-isopropyl-1H-indol-5-yl)-5-(1-methylpiperidin-4-yl)-1,3,4-oxadiazole] | 8.32 | 7.51 | 6.09
20 | CCc1c(-c2ccc(OC)c(OC)c2)[nH]c2ccc(-c3noc(C4CC(=O)N(C)C4)n3)cc12 (stereo not drawn) [Example 441, 4-(3-(2-(3,4-dimethoxyphenyl)-3-ethyl-1H-indol-5-yl)-1,2,4-oxadiazol-5-yl)-1-methylpyrrolidin-2-one] | 6.45 | 5.48 | < 4.30
21 | COc1ccc(-c2[nH]c3ccc(-c4nnc([C@@H]5CCCNC5)o4)cc3c2CC(F)(F)F)cc1OC [Example 56, (R)-2-(2-(3,4-dimethoxyphenyl)-3-(2,2,2-trifluoroethyl)-1H-indol-5-yl)-5-(piperidin-3-yl)-1,3,4-oxadiazole] | 7.60 | 7.33 | 5.90
